Measured values published in paper PMC4089508 (Bioorganic & medicinal chemistry, 2014).

How the values were obtained:
SK-OV-3 MDR-1/M-6-6 [1] = settings: other colchicine site agents; cited from earlier work
MDA-MB-435 = assay: Breast cancer/endothelial cell IC50, MDA-MB-435; assay type: cell-based; settings: Homo sapiens, MDA-MB-435, read-out: IC50, MDA-MB-435
HUVEC endothelial cells = assay: Breast cancer/endothelial cell IC50, HUVEC; assay type: cell-based; settings: Homo sapiens, read-out: IC50, HUVEC
4T-1 = assay: Breast cancer/endothelial cell IC50, 4T-1; assay type: cell-based, murine; settings: Mus musculus, 4T1, read-out: IC50, 4T-1
MCF-7 = assay: Breast cancer/endothelial cell IC50, MCF-7; assay type: cell-based; settings: Homo sapiens, MCF7, read-out: IC50, MCF-7
MDA-MB-231 = assay: Breast cancer/endothelial cell IC50, MDA-MB-231; assay type: cell-based; settings: Homo sapiens, MDA-MB-231, read-out: IC50, MDA-MB-231
[2] = test system: cellular microtubules in A-10 cells; assay: Loss of cellular microtubules, indirect immunofluorescence in A-10 cells; assay type: cell-based
MDA-MB-435 cells = assay: Apoptosis detection, Western blot of cleaved PARP; assay type: cell-based, human
HeLa cells = assay: Cell cycle analysis by flow cytometry; assay type: cell-based; settings: 40 and 50 nM 11, 75 and 100 nM 21, 18 h
[3] = target: purified porcine brain tubulin (Sus scrofa, UniProt P02554); assay: In vitro tubulin polymerization; settings: 10 μM compound
SK-OV-3 MDR-1/M-6-6 [4] = assay: cells; settings: Homo sapiens, SKOV3-MDR1-M6/6, read-out: Antiproliferative activity IC50, SK-OV-3 MDR-1/M-6-6
4T1 orthotopic allograft = assay: 4T1 triple negative breast orthotopic allograft model; settings: 4T1 orthotopic model
[5] = test system: MDA-MB-435 flank xenograft; assay: MDA-MB-435 flank xenograft model; assay type: in vivo, NCr athymic nu/nu mice; settings: vs carrier treated mice

Sequence of purified porcine brain tubulin (P02554 whole entry): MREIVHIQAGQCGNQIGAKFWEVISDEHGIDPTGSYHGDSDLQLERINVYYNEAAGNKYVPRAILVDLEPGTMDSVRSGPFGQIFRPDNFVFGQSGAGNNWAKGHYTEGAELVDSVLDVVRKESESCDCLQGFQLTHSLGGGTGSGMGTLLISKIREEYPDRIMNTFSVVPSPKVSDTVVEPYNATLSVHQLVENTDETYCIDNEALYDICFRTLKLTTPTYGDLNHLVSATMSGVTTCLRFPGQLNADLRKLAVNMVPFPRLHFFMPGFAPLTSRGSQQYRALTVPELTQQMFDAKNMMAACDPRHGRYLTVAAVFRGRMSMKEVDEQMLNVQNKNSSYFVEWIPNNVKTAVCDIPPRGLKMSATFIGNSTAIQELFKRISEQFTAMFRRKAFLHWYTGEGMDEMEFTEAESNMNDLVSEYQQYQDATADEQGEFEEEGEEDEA
Sequence of purified porcine brain tubulin (P02550 whole entry, further chain): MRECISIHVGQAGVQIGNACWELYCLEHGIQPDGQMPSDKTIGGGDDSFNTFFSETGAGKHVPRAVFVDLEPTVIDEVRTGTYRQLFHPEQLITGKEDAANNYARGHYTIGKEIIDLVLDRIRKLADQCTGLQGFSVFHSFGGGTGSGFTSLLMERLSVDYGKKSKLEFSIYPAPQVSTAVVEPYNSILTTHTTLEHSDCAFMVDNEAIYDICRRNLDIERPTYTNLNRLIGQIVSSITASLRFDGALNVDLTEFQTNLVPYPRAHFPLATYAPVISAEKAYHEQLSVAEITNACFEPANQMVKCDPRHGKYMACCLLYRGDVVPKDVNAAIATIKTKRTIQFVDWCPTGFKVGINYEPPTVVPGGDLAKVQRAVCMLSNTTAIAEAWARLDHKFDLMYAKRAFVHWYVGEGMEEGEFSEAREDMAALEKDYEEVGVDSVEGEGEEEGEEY

COc1cc2c(cc1O)CC[C@@H]1[C@@H]2CC[C@]2(C)[C@@H](O)CC[C@@H]12 [2-methoxyestradiol]
Rr (relative resistance), Pgp-expressing SK-OV-3 pair (SK-OV-3 MDR-1/M-6-6 [1]): 1.5–2.6

COc1ccc(/C=C\c2cc(OC)c(OC)c(OC)c2)cc1O [CA-4, combretastatin A-4]
IC50 (MDA-MB-435): 52.2 nM
IC50 (HUVEC endothelial cells): 17.7 ± 3.6 nM
IC50 (4T-1): 69.6 ± 8 nM
IC50 (MCF-7): 24.9 ± 1.4 nM
IC50 (MDA-MB-231): 228 ± 2.9 nM

COc1ccc(Nc2nc(C)nc3oc(C)cc23)cc1 [Compound 10, N-(4-methoxyphenyl)-2,6-dimethylfuro[2,3-d]pyrimidin-4-amine]
effect on cellular microtubules [2]: inactive

COc1ccc(N(C)c2nc(C)nc3oc(C)cc23)cc1 [Compound 11, N-(4-methoxyphenyl)-N,2,6-trimethylfuro[2,3-d]pyrimidin-4-amine]
cleaved PARP level (MDA-MB-435 cells; 75 nM 11, 18 h): slight increase in cleaved PARP
cleaved PARP level (MDA-MB-435 cells; 36 h, 75 nM 11, 120 nM 21): much higher levels of cleaved PARP
effect on cell cycle distribution (G2/M) (HeLa cells): initiated mitotic accumulation
inhibition of polymerization of purified tubulin [3]: almost completely inhibited the polymerization of tubulin

CCCCN(c1ccc(OC)cc1)c1nc(C)nc2oc(C)cc12 [Compound 14, N-butyl-N-(4-methoxyphenyl)-2,6-dimethylfuro[2,3-d]pyrimidin-4-amine]
IC50 (SK-OV-3 MDR-1/M-6-6 [4]): > 10000 nM

COc1ccc(N(C)c2nc(C)nc3oc(C)cc23)cc1.Cl [Compound 21, N-(4-methoxyphenyl)-N,2,6-trimethylfuro[2,3-d]pyrimidin-4-amine hydrochloride]
animal weight loss (4T1 orthotopic allograft): less weight loss than docetaxel
primary tumor growth (4T1 orthotopic allograft; 21 twice weekly at MTD): as active as docetaxel at reducing primary tumor growth
lung metastases (4T1 orthotopic allograft; compared to docetaxel): reduced the size (Figure 9D; metastases at arrows) but not the number
effect on cell cycle distribution (G2/M) (HeLa cells): initiated dose-dependent mitotic accumulation
effect on cellular microtubules [2]: dose-dependent loss of cellular microtubules
EC50 ([2]; read-out: EC50 for microtubule depolymerization, 18 h, 50% loss of cellular microtubules): 570 nM
inhibition of polymerization of purified tubulin [3]: almost completely inhibited the polymerization of tubulin
tumor vascular density (CD31/PECAM-1 staining) [5]: decreased tumor vascular density
